Measurements reported in ChEMBL document CHEMBL1201861, “Genomics of Drug Sensitity in Cancer screening data, Wellcome Trust Sanger Institute”.

Tested on: LB2241-RCC;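 further: cell viability assay measuring how strongly the cultured human renal carcinoma line is prevented from growing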
Assay: cells
Type: functional, cell-based, Homo sapiens
Settings: Homo sapiens, LB2241-RCC
Description: SANGER: Inhibition of human LB2241-RCC cell growth in a cell viability assay.

Row | SMILES | IC50
1 | OCCCNc1cc(-c2ccnc(Nc3cccc(Cl)c3)n2)ccn1 | > 256 nM

Tested on: HD-MY-Z;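 further: growth inhibition of HD-MY-Z cells, read out with a cell viability assay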
Assay: cells
Type: functional, cell-based, Homo sapiens
Settings: Homo sapiens, HD-MY-Z
Description: SANGER: Inhibition of human HD-MY-Z cell growth in a cell viability assay.

Row | SMILES | IC50
2 | OCCCNc1cc(-c2ccnc(Nc3cccc(Cl)c3)n2)ccn1 | 60.2 nM

Tested on: RKO;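 further: growth inhibition of human RKO cells, read out with a cell viability assay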
Assay: cells
Type: functional, cell-based, Homo sapiens
Settings: Homo sapiens, RKO
Description: SANGER: Inhibition of human RKO cell growth in a cell viability assay.

Row | SMILES | IC50
3 | OCCCNc1cc(-c2ccnc(Nc3cccc(Cl)c3)n2)ccn1 | 114 nM

Tested on: NCI-H209;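 further: growth inhibition of human NCI-H209 cells, measured by a cell viability assay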
Assay: cells
Type: functional, cell-based, Homo sapiens
Settings: Homo sapiens, NCI-H209
Description: SANGER: Inhibition of human NCI-H209 cell growth in a cell viability assay.

Row | SMILES | IC50
4 | OCCCNc1cc(-c2ccnc(Nc3cccc(Cl)c3)n2)ccn1 | 135 nM

Tested on: K562
Assay: cells
Type: functional, cell-based, Homo sapiens
Settings: Homo sapiens, K562
Description: SANGER: Inhibition of human K-562 cell growth in a cell viability assay.

Row | SMILES | IC50
5 | OCCCNc1cc(-c2ccnc(Nc3cccc(Cl)c3)n2)ccn1 | > 256 nM

Tested on: SF-539;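 further: Read-out is a cell viability assay, with IC50 reflecting inhibition of cell growth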
Assay: cells
Type: functional, cell-based, Homo sapiens
Settings: Homo sapiens, SF-539
Description: SANGER: Inhibition of human SF539 cell growth in a cell viability assay.

Row | SMILES | IC50
6 | OCCCNc1cc(-c2ccnc(Nc3cccc(Cl)c3)n2)ccn1 | > 256 nM

Tested on: NCI-H1838;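 further: growth inhibition of NCI-H1838 cells, determined with a cell viability readout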
Assay: cells
Type: functional, cell-based, Homo sapiens
Settings: Homo sapiens, NCI-H1838
Description: SANGER: Inhibition of human NCI-H1838 cell growth in a cell viability assay.

Row | SMILES | IC50
7 | OCCCNc1cc(-c2ccnc(Nc3cccc(Cl)c3)n2)ccn1 | > 256 nM

Tested on: NCI-H23;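 further: cell viability assay measuring growth inhibition of NCI-H23 cells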
Assay: cells
Type: functional, cell-based, Homo sapiens
Settings: Homo sapiens, NCI-H23
Description: SANGER: Inhibition of human NCI-H23 cell growth in a cell viability assay.

Row | SMILES | IC50
8 | OCCCNc1cc(-c2ccnc(Nc3cccc(Cl)c3)n2)ccn1 | 245 nM

Tested on: DJM-1;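 further: growth inhibition of human DJM-1 cells, read out by a cell viability assay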
Assay: cells
Type: functional, cell-based, Homo sapiens
Settings: Homo sapiens, DJM-1
Description: SANGER: Inhibition of human DJM-1 cell growth in a cell viability assay.

Row | SMILES | IC50
9 | OCCCNc1cc(-c2ccnc(Nc3cccc(Cl)c3)n2)ccn1 | > 256 nM

Tested on: Mo
Assay: cells
Type: functional, cell-based, Homo sapiens
Settings: Homo sapiens, Mo
Description: SANGER: Inhibition of human Mo-T cell growth in a cell viability assay.

Row | SMILES | IC50
10 | OCCCNc1cc(-c2ccnc(Nc3cccc(Cl)c3)n2)ccn1 | > 256 nM

Tested on: MMAC-SF;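 further: growth inhibition of human MMAC-SF cells, read out with a cell viability assay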
Assay: cells
Type: functional, cell-based, Homo sapiens
Settings: Homo sapiens, MMAC-SF
Description: SANGER: Inhibition of human MMAC-SF cell growth in a cell viability assay.

Row | SMILES | IC50
11 | OCCCNc1cc(-c2ccnc(Nc3cccc(Cl)c3)n2)ccn1 | > 256 nM

Tested on: ES8;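 further: growth inhibition of human ES8 cells, read out with a cell viability assay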
Assay: cells
Type: functional, cell-based, Homo sapiens
Settings: Homo sapiens, ES8
Description: SANGER: Inhibition of human ES8 cell growth in a cell viability assay.

Row | SMILES | IC50
12 | OCCCNc1cc(-c2ccnc(Nc3cccc(Cl)c3)n2)ccn1 | > 256 nM

Tested on: MLMA;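 further: growth inhibition of MLMA cells (human), determined through a cell viability readout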
Assay: cells
Type: functional, cell-based, Homo sapiens
Settings: Homo sapiens, MLMA
Description: SANGER: Inhibition of human MLMA cell growth in a cell viability assay.

Row | SMILES | IC50
13 | OCCCNc1cc(-c2ccnc(Nc3cccc(Cl)c3)n2)ccn1 | 57.4 nM

Tested on: NCI-H1770;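 further: growth inhibition of NCI-H1770 cells determined with a viability readout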
Assay: cells
Type: functional, cell-based, Homo sapiens
Settings: Homo sapiens, NCI-H1770
Description: SANGER: Inhibition of human NCI-H1770 cell growth in a cell viability assay.

Row | SMILES | IC50
14 | OCCCNc1cc(-c2ccnc(Nc3cccc(Cl)c3)n2)ccn1 | > 256 nM

Tested on: EKVX;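 further: growth inhibition of human EKVX cells, read out with a cell viability assay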
Assay: cells
Type: functional, cell-based, Homo sapiens
Settings: Homo sapiens, EKVX
Description: SANGER: Inhibition of human EKVX cell growth in a cell viability assay.

Row | SMILES | IC50
15 | OCCCNc1cc(-c2ccnc(Nc3cccc(Cl)c3)n2)ccn1 | > 256 nM

Tested on: A4-Fuk;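 further: growth inhibition of A4-Fuk cells, read out by a cell viability assay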
Assay: cells
Type: functional, cell-based, Homo sapiens
Settings: Homo sapiens, A4-Fuk
Description: SANGER: Inhibition of human A4-Fuk cell growth in a cell viability assay.

Row | SMILES | IC50
16 | OCCCNc1cc(-c2ccnc(Nc3cccc(Cl)c3)n2)ccn1 | 28 nM

Tested on: NTERA-2-cl-D1;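 further: inhibition of cell growth, measured with a cell viability assay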
Assay: cells
Type: functional, cell-based, Homo sapiens
Settings: Homo sapiens, NTERA-2-cl-D1
Description: SANGER: Inhibition of human NTERA-S-cl-D1 cell growth in a cell viability assay.

Row | SMILES | IC50
17 | OCCCNc1cc(-c2ccnc(Nc3cccc(Cl)c3)n2)ccn1 | 50.8 nM

Tested on: NCI-H1155;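 further: cell growth inhibition measured by a viability assay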
Assay: cells
Type: functional, cell-based, Homo sapiens
Settings: Homo sapiens, NCI-H1155
Description: SANGER: Inhibition of human NCI-H1155 cell growth in a cell viability assay.

Row | SMILES | IC50
18 | OCCCNc1cc(-c2ccnc(Nc3cccc(Cl)c3)n2)ccn1 | > 256 nM

Tested on: COLO-320-HSR;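 further: growth inhibition of COLO-320-HSR cells, determined with a cell viability assay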
Assay: cells
Type: functional, cell-based, Homo sapiens
Settings: Homo sapiens, COLO-320-HSR
Description: SANGER: Inhibition of human COLO-320-HSR cell growth in a cell viability assay.

Row | SMILES | IC50
19 | OCCCNc1cc(-c2ccnc(Nc3cccc(Cl)c3)n2)ccn1 | 82.9 nM

Tested on: MOLT-4;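 further: growth inhibition of MOLT-4 cells, determined with a cell viability readout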
Assay: cells
Type: functional, cell-based, Homo sapiens
Settings: Homo sapiens, MOLT-4
Description: SANGER: Inhibition of human MOLT-4 cell growth in a cell viability assay.

Row | SMILES | IC50
20 | OCCCNc1cc(-c2ccnc(Nc3cccc(Cl)c3)n2)ccn1 | > 256 nM

Tested on: IST-MES1;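 further: growth inhibition of IST-MES1 cells, measured with a cell viability assay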
Assay: cells
Type: functional, cell-based, Homo sapiens
Settings: Homo sapiens, IST-MES1
Description: SANGER: Inhibition of human IST-MES1 cell growth in a cell viability assay.

Row | SMILES | IC50
21 | OCCCNc1cc(-c2ccnc(Nc3cccc(Cl)c3)n2)ccn1 | 135 nM

Tested on: ES5;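 further: growth inhibition of human ES5 cells, read out by a cell viability assay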
Assay: cells
Type: functional, cell-based, Homo sapiens
Settings: Homo sapiens, ES5
Description: SANGER: Inhibition of human ES5 cell growth in a cell viability assay.

Row | SMILES | IC50
22 | OCCCNc1cc(-c2ccnc(Nc3cccc(Cl)c3)n2)ccn1 | > 256 nM

Tested on: OS-RC-2;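 further: growth inhibition of human OS-RC-2 cells, measured by a cell viability assay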
Assay: cells
Type: functional, cell-based, Homo sapiens
Settings: Homo sapiens, OS-RC-2
Description: SANGER: Inhibition of human OS-RC-2 cell growth in a cell viability assay.

Row | SMILES | IC50
23 | OCCCNc1cc(-c2ccnc(Nc3cccc(Cl)c3)n2)ccn1 | 82.9 nM

Tested on: HCC1187;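 further: growth inhibition of HCC1187 cells, read out with a cell viability assay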
Assay: cells
Type: functional, cell-based, Homo sapiens
Settings: Homo sapiens, HCC1187
Description: SANGER: Inhibition of human HCC1187 cell growth in a cell viability assay.

Row | SMILES | IC50
24 | OCCCNc1cc(-c2ccnc(Nc3cccc(Cl)c3)n2)ccn1 | > 256 nM

Tested on: HL-60;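 further: growth inhibition of human HL-60 cells, read out with a cell viability assay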
Assay: cells
Type: functional, cell-based, Homo sapiens
Settings: Homo sapiens, HL-60
Description: SANGER: Inhibition of human HL-60 cell growth in a cell viability assay.

Row | SMILES | IC50
25 | OCCCNc1cc(-c2ccnc(Nc3cccc(Cl)c3)n2)ccn1 | > 256 nM

Tested on: SHP77;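 further: growth inhibition of human SHP-77 cells measured by a cell viability assay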
Assay: cells
Type: functional, cell-based, Homo sapiens, SHP-77
Settings: Homo sapiens, SHP77
Description: SANGER: Inhibition of human SHP-77 cell growth in a cell viability assay.

Row | SMILES | IC50
26 | OCCCNc1cc(-c2ccnc(Nc3cccc(Cl)c3)n2)ccn1 | 155 nM

Tested on: CW-2;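 further: growth inhibition of CW-2 cells, read out by a cell viability assay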
Assay: cells
Type: functional, cell-based, Homo sapiens
Settings: Homo sapiens, CW-2
Description: SANGER: Inhibition of human CW-2 cell growth in a cell viability assay.

Row | SMILES | IC50
27 | OCCCNc1cc(-c2ccnc(Nc3cccc(Cl)c3)n2)ccn1 | > 256 nM

Tested on: A388;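 further: growth inhibition of human A388 cells, read out with a cell viability assay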
Assay: cells
Type: functional, cell-based, Homo sapiens
Settings: Homo sapiens, A388
Description: SANGER: Inhibition of human A388 cell growth in a cell viability assay.

Row | SMILES | IC50
28 | OCCCNc1cc(-c2ccnc(Nc3cccc(Cl)c3)n2)ccn1 | 47.7 nM

Tested on: KINGS-1;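 further: cell viability assay measuring suppression of KINGS-1 cell growth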
Assay: cells
Type: functional, cell-based, Homo sapiens
Settings: Homo sapiens, KINGS-1
Description: SANGER: Inhibition of human KINGS-1 cell growth in a cell viability assay.

Row | SMILES | IC50
29 | OCCCNc1cc(-c2ccnc(Nc3cccc(Cl)c3)n2)ccn1 | 103 nM

Tested on: HCE-4;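 further: cell viability assay measuring inhibition of growth in the human HCE-4 cell line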
Assay: cells
Type: functional, cell-based, Homo sapiens
Settings: Homo sapiens, HCE-4
Description: SANGER: Inhibition of human HCE-4 cell growth in a cell viability assay.

Row | SMILES | IC50
30 | OCCCNc1cc(-c2ccnc(Nc3cccc(Cl)c3)n2)ccn1 | > 256 nM

Tested on: KS-1;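 further: growth inhibition of KS-1 cells, read out with a cell viability assay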
Assay: cells
Type: functional, cell-based, Homo sapiens
Settings: Homo sapiens, KS-1
Description: SANGER: Inhibition of human KS-1 cell growth in a cell viability assay.

Row | SMILES | IC50
31 | OCCCNc1cc(-c2ccnc(Nc3cccc(Cl)c3)n2)ccn1 | 14 nM

Tested on: MEG-01;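 further: growth inhibition of MEG-01 cells, read out by a cell viability assay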
Assay: cells
Type: functional, cell-based, Homo sapiens
Settings: Homo sapiens, MEG-01
Description: SANGER: Inhibition of human MEG-01 cell growth in a cell viability assay.

Row | SMILES | IC50
32 | OCCCNc1cc(-c2ccnc(Nc3cccc(Cl)c3)n2)ccn1 | 126 nM

Tested on: GI-1;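 further: growth inhibition of human GI-1 cells, measured with a cell viability readout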
Assay: cells
Type: functional, cell-based, Homo sapiens
Settings: Homo sapiens, GI-1
Description: SANGER: Inhibition of human GI-1 cell growth in a cell viability assay.

Row | SMILES | IC50
33 | OCCCNc1cc(-c2ccnc(Nc3cccc(Cl)c3)n2)ccn1 | 78.1 nM

Tested on: no-10;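 further: growth inhibition of no-10 cells, read out with a cell viability assay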
Assay: cells
Type: functional, cell-based, Homo sapiens
Settings: Homo sapiens
Description: SANGER: Inhibition of human no-10 cell growth in a cell viability assay.

Row | SMILES | IC50
34 | OCCCNc1cc(-c2ccnc(Nc3cccc(Cl)c3)n2)ccn1 | 14.8 nM

Tested on: EW-16;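 further: growth inhibition of human EW-16 cells, read out as cell viability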
Assay: cells
Type: functional, cell-based, Homo sapiens
Settings: Homo sapiens, EW-16
Description: SANGER: Inhibition of human EW-16 cell growth in a cell viability assay.

Row | SMILES | IC50
35 | OCCCNc1cc(-c2ccnc(Nc3cccc(Cl)c3)n2)ccn1 | 32.8 nM

Tested on: KG-1;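 further: growth inhibition of KG-1 cells, read out by a cell viability assay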
Assay: cells
Type: functional, cell-based, Homo sapiens
Settings: Homo sapiens, KG-1
Description: SANGER: Inhibition of human KG-1 cell growth in a cell viability assay.

Row | SMILES | IC50
36 | OCCCNc1cc(-c2ccnc(Nc3cccc(Cl)c3)n2)ccn1 | > 256 nM

Tested on: KM-H2;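 further: growth inhibition of KM-H2 cells, read out by a cell viability assay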
Assay: cells
Type: functional, cell-based, Homo sapiens
Settings: Homo sapiens, KM-H2
Description: SANGER: Inhibition of human KM-H2 cell growth in a cell viability assay.

Row | SMILES | IC50
37 | OCCCNc1cc(-c2ccnc(Nc3cccc(Cl)c3)n2)ccn1 | > 256 nM

Tested on: TK-10;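 further: growth inhibition of TK-10 cells, read out in a cell viability assay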
Assay: cells
Type: functional, cell-based, Homo sapiens
Settings: Homo sapiens, TK-10
Description: SANGER: Inhibition of human TK10 cell growth in a cell viability assay.

Row | SMILES | IC50
38 | OCCCNc1cc(-c2ccnc(Nc3cccc(Cl)c3)n2)ccn1 | 57 nM

Tested on: PSN1;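 further: suppression of growth of human PSN1 cells, read out by a cell viability assay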
Assay: cells
Type: functional, cell-based, Homo sapiens
Settings: Homo sapiens, PSN1
Description: SANGER: Inhibition of human PSN1 cell growth in a cell viability assay.

Row | SMILES | IC50
39 | OCCCNc1cc(-c2ccnc(Nc3cccc(Cl)c3)n2)ccn1 | 15.2 nM

Tested on: COR-L88;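 further: growth inhibition of COR-L88 cells, read out with a cell viability assay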
Assay: cells
Type: functional, cell-based, Homo sapiens
Settings: Homo sapiens, COR-L88
Description: SANGER: Inhibition of human COR-L88 cell growth in a cell viability assay.

Row | SMILES | IC50
40 | OCCCNc1cc(-c2ccnc(Nc3cccc(Cl)c3)n2)ccn1 | > 256 nM

Tested on: LU-139
Assay: cells
Type: functional, cell-based, Homo sapiens
Settings: Homo sapiens, LU-139
Description: SANGER: Inhibition of human LU-139 cell growth in a cell viability assay.

Row | SMILES | IC50
41 | OCCCNc1cc(-c2ccnc(Nc3cccc(Cl)c3)n2)ccn1 | 131 nM

Tested on: LB373-MEL-D;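 further: growth inhibition of the cell line, read out in a cell viability assay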
Assay: cells
Type: functional, cell-based, Homo sapiens
Settings: Homo sapiens, LB373-MEL-D
Description: SANGER: Inhibition of human LB373-MEL-D cell growth in a cell viability assay.

Row | SMILES | IC50
42 | OCCCNc1cc(-c2ccnc(Nc3cccc(Cl)c3)n2)ccn1 | 209 nM

Tested on: SW 954;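 further: growth inhibition of SW954 human cancer cells, read out as cell viability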
Assay: cells
Type: functional, cell-based, Homo sapiens
Settings: Homo sapiens, SW 954
Description: SANGER: Inhibition of human SW954 cell growth in a cell viability assay.

Row | SMILES | IC50
43 | OCCCNc1cc(-c2ccnc(Nc3cccc(Cl)c3)n2)ccn1 | 170 nM

Tested on: KURAMOCHI;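 further: growth inhibition of KURAMOCHI cells, read out with a cell viability assay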
Assay: cells
Type: functional, cell-based, Homo sapiens
Settings: Homo sapiens, KURAMOCHI
Description: SANGER: Inhibition of human KURAMOCHI cell growth in a cell viability assay.

Row | SMILES | IC50
44 | OCCCNc1cc(-c2ccnc(Nc3cccc(Cl)c3)n2)ccn1 | 59.8 nM

Tested on: MC116;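 further: growth inhibition of MC116 cells, read out with a cell viability assay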
Assay: cells
Type: functional, cell-based, Homo sapiens
Settings: Homo sapiens, MC116
Description: SANGER: Inhibition of human MC116 cell growth in a cell viability assay.

Row | SMILES | IC50
45 | OCCCNc1cc(-c2ccnc(Nc3cccc(Cl)c3)n2)ccn1 | 40.7 nM

Tested on: KE-37;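 further: growth inhibition of KE-37 cells, read out with a cell viability assay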
Assay: cells
Type: functional, cell-based, Homo sapiens
Settings: Homo sapiens, KE-37
Description: SANGER: Inhibition of human KE-37 cell growth in a cell viability assay.

Row | SMILES | IC50
46 | OCCCNc1cc(-c2ccnc(Nc3cccc(Cl)c3)n2)ccn1 | 81.8 nM

Tested on: LU-134-A
Assay: cells
Type: functional, cell-based, Homo sapiens
Settings: Homo sapiens, LU-134-A
Description: SANGER: Inhibition of human LU-134-A cell growth in a cell viability assay.

Row | SMILES | IC50
47 | OCCCNc1cc(-c2ccnc(Nc3cccc(Cl)c3)n2)ccn1 | 123 nM

Tested on: RCC10RGB;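 further: growth inhibition of human RCC10RGB cells, read out by a cell viability assay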
Assay: cells
Type: functional, cell-based, Homo sapiens
Settings: Homo sapiens, RCC10RGB
Description: SANGER: Inhibition of human RCC10RGB cell growth in a cell viability assay.

Row | SMILES | IC50
48 | OCCCNc1cc(-c2ccnc(Nc3cccc(Cl)c3)n2)ccn1 | 111 nM

Tested on: NOS-1;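 further: growth inhibition of the human NOS-1 cell line, read out with a cell viability assay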
Assay: cells
Type: functional, cell-based, Homo sapiens
Settings: Homo sapiens, NOS-1
Description: SANGER: Inhibition of human NOS-1 cell growth in a cell viability assay.

Row | SMILES | IC50
49 | OCCCNc1cc(-c2ccnc(Nc3cccc(Cl)c3)n2)ccn1 | 19.6 nM
